Results reported in ChEMBL document CHEMBL1121801, “Salicylamide derivatives related to medroxalol with alpha- and beta-adrenergic antagonist and antihypertension activity” (J Med Chem, 1981).

Assays:
[1] = molecular target: T1, Adrenergic receptor alpha-1 (Homo sapiens, UniProt P35348+P25100+P35368); assay: Compound was tested in vitro for Alpha adrenergic receptor blocking activity in the isolated rabbit aortic strip preparation; - log KB; parameters: species or system Oryctolagus cuniculus; conditions: target entry is the homologue from another species
T1 sequence (P35348 whole entry): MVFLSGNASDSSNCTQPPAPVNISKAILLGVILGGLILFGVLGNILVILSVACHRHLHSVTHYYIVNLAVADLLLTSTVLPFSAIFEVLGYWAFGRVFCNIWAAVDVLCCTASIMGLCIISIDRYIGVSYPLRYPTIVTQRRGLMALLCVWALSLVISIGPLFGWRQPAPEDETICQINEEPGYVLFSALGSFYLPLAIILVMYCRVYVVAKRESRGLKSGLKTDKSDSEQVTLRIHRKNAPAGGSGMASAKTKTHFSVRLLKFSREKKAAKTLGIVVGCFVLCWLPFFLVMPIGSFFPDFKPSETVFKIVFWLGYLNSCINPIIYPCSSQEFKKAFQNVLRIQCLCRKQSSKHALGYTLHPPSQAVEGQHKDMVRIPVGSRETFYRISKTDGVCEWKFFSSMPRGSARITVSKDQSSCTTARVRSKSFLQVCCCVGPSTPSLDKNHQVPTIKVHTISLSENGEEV
T1 sequence (P25100 whole entry): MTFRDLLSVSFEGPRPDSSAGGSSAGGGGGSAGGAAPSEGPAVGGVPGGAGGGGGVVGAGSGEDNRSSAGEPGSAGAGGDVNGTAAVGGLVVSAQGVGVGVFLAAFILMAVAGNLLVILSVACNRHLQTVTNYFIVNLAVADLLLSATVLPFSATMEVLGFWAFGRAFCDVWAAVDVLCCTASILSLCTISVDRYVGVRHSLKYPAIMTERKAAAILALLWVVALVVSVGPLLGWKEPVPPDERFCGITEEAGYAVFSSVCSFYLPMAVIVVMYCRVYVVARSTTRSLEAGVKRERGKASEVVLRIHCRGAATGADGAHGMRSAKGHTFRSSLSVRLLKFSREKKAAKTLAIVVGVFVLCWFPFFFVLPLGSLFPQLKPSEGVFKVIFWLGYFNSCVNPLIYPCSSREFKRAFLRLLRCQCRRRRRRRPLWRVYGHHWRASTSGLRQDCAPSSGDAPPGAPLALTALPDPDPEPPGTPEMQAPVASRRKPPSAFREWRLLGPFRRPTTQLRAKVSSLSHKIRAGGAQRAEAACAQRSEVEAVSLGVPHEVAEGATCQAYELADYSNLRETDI
T1 sequence (P35368 whole entry): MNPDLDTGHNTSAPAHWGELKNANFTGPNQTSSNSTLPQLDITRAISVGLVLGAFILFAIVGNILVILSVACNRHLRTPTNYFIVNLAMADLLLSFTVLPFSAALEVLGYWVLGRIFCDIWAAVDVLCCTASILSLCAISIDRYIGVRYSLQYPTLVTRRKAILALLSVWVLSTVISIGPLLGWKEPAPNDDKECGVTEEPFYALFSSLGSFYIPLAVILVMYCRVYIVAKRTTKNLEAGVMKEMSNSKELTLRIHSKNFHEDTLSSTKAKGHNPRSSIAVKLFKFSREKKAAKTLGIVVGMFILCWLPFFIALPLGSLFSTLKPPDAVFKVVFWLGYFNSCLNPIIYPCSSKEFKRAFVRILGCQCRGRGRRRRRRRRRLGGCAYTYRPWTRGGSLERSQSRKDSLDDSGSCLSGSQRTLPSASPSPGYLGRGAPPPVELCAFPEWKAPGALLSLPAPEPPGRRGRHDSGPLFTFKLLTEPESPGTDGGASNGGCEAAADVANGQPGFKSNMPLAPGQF

Oryctolagus cuniculus = organism: Oryctolagus cuniculus; assay: (§1) Ratio of pA2 for beta-adrenergic receptor to that of alpha-adrenergic receptor
Adrenergic receptor beta [2] = molecular target: T2, Adrenergic receptor beta (Homo sapiens, UniProt P08588+P07550+P13945); assay: In vitro blocking activity against beta adrenergic receptor, isolated from guinea pig atria; format: protein assay
Cavia porcellus = organism: Cavia porcellus; assay: spasmolytic activity in isolated guinea pig ileum preparation;- log KB; (Bacl2); format: functional, organism-based; conditions: read-out: pA2 (converted)
Rattus norvegicus [3] = assay: Antihypertensive activity in spontaneously hypertensive rats(SHR) at 50 mg/kg peroral dose after 1 h, expressed as decrease in systolic blood pressure; format: functional, Artery; conditions: route oral
Rattus norvegicus [4] = assay: Antihypertensive activity in spontaneously hypertensive rats(SHR) at 50 mg/kg peroral dose after 4 h, expressed as decrease in systolic blood pressure; format: functional, Artery; conditions: route oral
[5] = molecular target: Beta-1 adrenergic receptor (Homo sapiens) (UniProt P08588); conditions: Canis lupus familiaris;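 further: anesthetized dogs dosed intravenously, sympatholytic action measured as inhibition of the chronotropic response to isoproterenol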
Description: In vivo sympatholytic activity (isoproterenol-induced chronotropy) at beta 1-adrenergic receptor in anesthetized dog, iv

[6] = molecular target: Beta-2 adrenergic receptor (Canis lupus familiaris) (UniProt P54833);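 further: Beta-2 blockade of isoproterenol-induced vasodepression in anesthetized dogs, given intravenously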
Description: In vivo sympatholytic activity (isoproterenol-induced vasodepression) at beta 2-adrenergic receptor in anesthetized dog, iv

[7] = molecular target: Adrenergic receptor alpha (Homo sapiens) (UniProt P35348+P08913+P18825+P25100+P35368+P18089); conditions: Canis lupus familiaris
Description: In vivo sympatholytic activity (phenylephrine-induced vasopressor response) at alpha-adrenergic receptor in anesthetized dog, iv

[8] = molecular target: T1, Adrenergic receptor alpha-1; assay: In vitro blocking activity against alpha adrenergic receptor, isolated from rabbit aortic strip; format: protein assay, Oryctolagus cuniculus
Rattus norvegicus [9] = assay: Compound was tested for antihypertensive activity in spontaneously hypertensive rats(SHR)at 50 mg/kg (po) dose after 1 h; format: functional
Rattus norvegicus [10] = assay: Compound was tested for antihypertensive activity n spontaneously hypertensive rats(SHR),at 50 mg/kg (po) dose after 4 h; format: functional
Adrenergic receptor beta [11] = molecular target: T2, Adrenergic receptor beta; assay: as §1; format: protein assay; conditions: Cavia porcellus

Sequence of Beta-1 adrenergic receptor (Homo sapiens) (P08588 whole entry, looked up): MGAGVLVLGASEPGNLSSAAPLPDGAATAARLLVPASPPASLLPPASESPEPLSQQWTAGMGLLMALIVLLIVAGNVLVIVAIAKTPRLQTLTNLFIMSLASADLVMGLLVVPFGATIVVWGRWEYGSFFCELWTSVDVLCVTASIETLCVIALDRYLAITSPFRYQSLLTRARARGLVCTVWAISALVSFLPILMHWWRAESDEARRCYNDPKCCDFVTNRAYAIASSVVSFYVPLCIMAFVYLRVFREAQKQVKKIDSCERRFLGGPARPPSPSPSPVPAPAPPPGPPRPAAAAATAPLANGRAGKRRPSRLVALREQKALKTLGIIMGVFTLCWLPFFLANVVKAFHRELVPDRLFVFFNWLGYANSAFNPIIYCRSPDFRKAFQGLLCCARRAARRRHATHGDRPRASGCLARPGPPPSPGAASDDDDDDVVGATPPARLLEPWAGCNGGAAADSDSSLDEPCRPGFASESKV
Sequence of Beta-2 adrenergic receptor (Canis lupus familiaris) (P54833 whole entry, looked up): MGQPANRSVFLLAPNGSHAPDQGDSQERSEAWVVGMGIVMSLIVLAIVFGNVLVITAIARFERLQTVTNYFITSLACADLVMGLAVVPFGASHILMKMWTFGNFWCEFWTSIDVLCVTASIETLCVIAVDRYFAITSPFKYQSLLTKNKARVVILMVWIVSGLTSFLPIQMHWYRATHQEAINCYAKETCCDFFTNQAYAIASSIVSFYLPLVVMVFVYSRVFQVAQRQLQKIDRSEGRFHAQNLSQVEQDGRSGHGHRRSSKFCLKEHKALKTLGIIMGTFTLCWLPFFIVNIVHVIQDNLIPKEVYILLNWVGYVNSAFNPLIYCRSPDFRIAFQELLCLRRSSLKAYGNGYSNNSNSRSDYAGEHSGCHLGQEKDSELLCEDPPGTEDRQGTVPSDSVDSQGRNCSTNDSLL

Row | pA2 [1] | Ratio (Oryctolagus cuniculus) | pA2 (Adrenergic receptor beta [2]) | DR10 [5] | DR10 [6] | DR10 [7] | pA2 [8] | Ratio (Adrenergic receptor beta [11]) | Compound | Kb (Cavia porcellus) | BP decrease (Rattus norvegicus [3]) | BP decrease (Rattus norvegicus [4]) | BP decrease (Rattus norvegicus [9]) | BP decrease (Rattus norvegicus [10])
1 | 6.08 | 55 | 7.82 | 0.84 mg/kg | 1.17 mg/kg | 3.86 mg/kg | – | – | CC(CCc1ccc2c(c1)OCO2)NCC(O)c1ccc(O)c(C(N)=O)c1.Cl (centres undefined) [MEDROXALOL HYDROCHLORIDE] | 2340 nM | 88 mmHg | 90 mmHg | – | –
2 | – | – | 4.53 | – | – | – | < 5 | – | CCCCCCCCCCCCNC(=O)c1cc(C(O)CNC(C)CCc2ccc3c(c2)OCO3)ccc1O.Cl (centres undefined) | < 63100 nM | – | – | 16 mmHg | 18 mmHg
3 | – | 0.1 | 6.7 | 15.3 mg/kg | > 10 mg/kg | 1.09 mg/kg | 7.57 | – | Cc1ccccc1N1CCN(CC(O)c2ccc(O)c(C(N)=O)c2)CC1.Cl.Cl (centres undefined) | 1860 nM | 48 mmHg | 37 mmHg | – | –
4 | – | – | 5.88 | 22.5 mg/kg | 14.8 mg/kg | 4.84 mg/kg | 5.85 | 1.1 | CC(C)NC(=O)c1cc(C(O)CNC(C)CCc2ccc3c(c2)OCO3)ccc1O.Cl (centres undefined) | 417 nM | 48 mmHg | 10 mmHg | – | –
5 | – | 0.8 | 5.88 | > 10 mg/kg | > 10 mg/kg | 6.6 mg/kg | 6.05 | – | CC(CCc1ccc2c(c1)OCO2)NCC(O)c1ccc(O)c(C(=O)NCC(C)(C)C)c1.Cl (centres undefined) | 126 nM | 55 mmHg | 24 mmHg | – | –
6 | – | 78 | 7.62 | 2.19 mg/kg | 5.46 mg/kg | 5.82 mg/kg | 5.73 | – | COC(=O)c1cc(C(O)CNC(C)CCc2ccc3c(c2)OCO3)ccc1O.Cl (centres undefined) | 126 nM | 56 mmHg | 53 mmHg | – | –
7 | – | > 2090 | 8.46 | 0.23 mg/kg | 1.64 mg/kg | 9.68 mg/kg | < 5.14 | – | COc1ccc(C(O)CNC(C)CCc2ccc3c(c2)OCO3)cc1C(N)=O.Cl (centres undefined) | 43700 nM | 76 mmHg | 78 mmHg | – | –
8 | – | 6.2 | 6.69 | 8.63 mg/kg | 3.61 mg/kg | 5.44 mg/kg | 5.9 | – | CNC(=O)c1cc(C(O)CNC(C)CCc2ccc3c(c2)OCO3)ccc1O.Cl (centres undefined) | 380 nM | 84 mmHg | 91 mmHg | – | –
9 | – | – | – | – | – | – | – | – | Cc1ccc(N(CC2=NCCN2)c2cccc(O)c2)cc1.Cl [PHENTOLAMINE HYDROCHLORIDE] | – | – | – | 62 mmHg | 60 mmHg

Row | Compound | pA2 [1] | Ratio (Oryctolagus cuniculus) | pA2 (Adrenergic receptor beta [2]) | DR10 [5] | DR10 [6] | DR10 [7] | pA2 [8] | Ratio (Adrenergic receptor beta [11]) | Kb (Cavia porcellus) | BP decrease (Rattus norvegicus [3]) | BP decrease (Rattus norvegicus [4]) | BP decrease (Rattus norvegicus [9]) | BP decrease (Rattus norvegicus [10])
10 | CC(Cc1ccc2c(c1)OCO2)NCC(O)c1ccc(O)c(C(N)=O)c1 (centres undefined) | – | 0.9 | 5.97 | 6.75 mg/kg | 7.13 mg/kg | 16 mg/kg | 6.04 | – | 4570 nM | 79 mmHg | 73 mmHg | – | –
